What was measured:
[1] = system: harmful plants such as Stellaria media, Lolium multiflorum, Amaranthus retroflexus, Sinapis alba, Avena sativa and Setaria viridis; experiment: Pre-emergence effect on weeds (greenhouse pot test, visual scoring); format: in vivo; settings: applied pre-emergence at an application rate of 1 kg or less of active substance per hectare; scored visually after 3 to 4 weeks vs untreated controls;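 also: scored as plant damage or reduced emergence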
Text: 1 Pre-emergence Effect on Weeds
Seeds or rhizome pieces of monocotyledonous and dicotyledonous weeds plants are placed in sandy loam soil in plastic pots and covered with soil. The compounds according to the invention which are formulated in the form of wettable powders or emulsion concentrates are then applied to the surface of the soil cover in the form of an aqueous suspension or emulsion at an application rate of 600 to 800 l of water/ha (converted), in various dosages.

[2] = system: harmful plants such as Sinapis alba, Echinochloa crus- galli, Lolium multiflorum, Stellaria media, Cyperus iria, Amaranthus retroflexus, Setaria viridis and …; experiment: Post-emergence effect on weeds (greenhouse pot test, visual scoring); format: in vivo; settings: applied post-emergence (three-leaf stage) at an application rate of 1 kg and less of active substance per hectare; scored visually after about 3 to 4 weeks vs untreated controls
Protocol: 2. Post-emergence Effect on Weeds
Seeds or rhizome pieces of monocotyledonous and dicotyledonous weeds are placed in sandy loam soil in plastic pots, covered with soil and grown in the greenhouse under good growth conditions. Three weeks after sowing, the test plants are treated in the three-leaf stage. The compounds according to the invention which are formulated as wettable powders or as emulsion concentrates are sprayed in various dosages on the green parts of the plants at an application rate of 600 to 800 l of water/ha (converted). After the test plants have remained in the greenhouse for about 3 to 4 weeks under ideal growth conditions, the effect of the preparations is scored visually by comparison with untreated controls. The agents according to the invention also have a good herbicidal post-emergence action against a broad range of economically important grass weeds and dicotyledonous weeds.

Row | SMILES | herbicidal action against harmful plants, pre-emergence [1] | herbicidal action against harmful plants, post-emergence [2]
1 | CC(C)(F)c1nc(N)nc(NC(CCc2ccccc2)c2ccccc2)n1 (stereo not drawn) [Example 18-3] | very good herbicidal action | very good herbicidal action
2 | COc1cccc(CCCC(Nc2nc(N)nc(C(C)(C)F)n2)C2CC2)c1 (stereo not drawn) [Example 22-30] | very good herbicidal action | very good herbicidal action
3 | CC(C)(F)c1nc(N)nc(NC(CCCc2cccc(Cl)c2)C2CCC2)n1 (stereo not drawn) [Example 28-14] | very good herbicidal action | very good herbicidal action
4 | Cc1cc(C)cc(CCC(Nc2nc(N)nc(C(C)C)n2)C2CC2)c1 (stereo not drawn) [Example 9-18] | very good herbicidal action | very good herbicidal action
5 | Cc1nc(N)nc(NC(CCCc2ccccc2)C2CC2)n1 (stereo not drawn) [Example 22-8] | very good herbicidal action | very good herbicidal action
6 | Nc1nc(NC(CCc2ccccc2)C2CC2)nc(-c2ccccc2)n1 (stereo not drawn) [Example 9-19] | very good herbicidal action | very good herbicidal action
7 | CC(C)c1nc(N)nc(NC(CCc2ccccc2)C2CCCO2)n1 (stereo not drawn) [Example 19-6] | very good herbicidal action | very good herbicidal action
8 | CC(C)(F)c1nc(N)nc(NC(CCc2cccc(Cl)c2)CC2CC2)n1 (stereo not drawn) [Example 32-6] | very good herbicidal action | very good herbicidal action
9 | CC(C)(F)c1nc(N)nc(NC(CCc2ccccc2)C2CCCC2)n1 (stereo not drawn) [Example 8-2] | very good herbicidal action | very good herbicidal action
10 | CC(C)c1nc(N)nc(NC(CCc2ccccc2)C2CCOC2)n1 (stereo not drawn) [Example 20-2] | very good herbicidal action | very good herbicidal action
11 | CC(C)c1nc(N)nc(NC(C=Cc2ccccc2)C2CC2)n1 (stereo not drawn) [Example 44-2] | very good herbicidal action | very good herbicidal action
12 | Nc1nc(NC(CCCCc2ccccc2)C2CCC2)nc(C(F)(F)F)n1 (stereo not drawn) [Example 31-2] | very good herbicidal action | very good herbicidal action
13 | CC(C)(F)c1nc(N)nc(NC(CCc2cccc(C(F)(F)F)c2)C2CC2)n1 (stereo not drawn) [Example 9-6] | very good herbicidal action | very good herbicidal action
14 | COc1cccc(CCC(Nc2nc(N)nc(C(C)C)n2)C2CC2)c1 (stereo not drawn) [Example 9-13] | very good herbicidal action | very good herbicidal action
15 | Cc1cccc(CCC(Nc2nc(N)nc(CC(C)C)n2)C2CC2)c1 (stereo not drawn) [Example 9-15] | very good herbicidal action | very good herbicidal action
16 | CC(C)c1nc(N)nc(NC(CCCc2cccc(Cl)c2)C2CCC2)n1 (stereo not drawn) [Example 28-13] | very good herbicidal action | very good herbicidal action
17 | CC(C)c1nc(N)nc(NC(CCCCc2ccccc2)C2CCC2)n1 (stereo not drawn) [Example 31-3] | very good herbicidal action | very good herbicidal action
18 | CC(C)Cc1nc(N)nc(NC(CCc2ccccc2)C2CC2)n1 (stereo not drawn) [Example 9-1] | very good herbicidal action | very good herbicidal action

From patent publication US20030162661A1, “2,4-Diamino-1,3,5-triazines, their preparation, and their use as herbicides and plant growth regulators” (priority 1998, published 2003)
